Experimental data reported in patent publication US11028054B2, “1, 4, 6-trisubstituted-2-alkyl-1H-benzo[d]imidazole derivatives as dihydroorotate oxygenase inhibitors” (Merck Patent GmbH, priority 2017, dated 2021).

Legend:
Jurkat cells = experiment: Measurement of cell proliferation activity (Jurkat cell), XTT assay; format: cell-based; settings: Homo sapiens, 72 hrs incubation, cell viability by XTT assay
Description: Measurement of Cell Proliferation Activity (Jurkat Cell)
Jurkat cells are an immortalized cell line of T lymphocyte cells, which are used to study acute T cell leukaemia, T cell signalling, and the expression of various chemokine receptors susceptible to viral entry, particularly HIV. Jurkat cells are also useful in science because of their ability to produce interleukin 2. Their primary use, however, is to determine the mechanism of differential susceptibility of cancers to drugs and radiation.
Jurkat cells are cultured in RPMI medium with 10% FBS, and seeded at a density of 100,000 cells per well in a 96 well plate. Compound is added at different concentrations (typically starting at 10 μM followed by half log dilutions for a total of 8-10 concentrations). Each concentration is tested in triplicate and DMSO concentration is kept constant at 0.25-0.5%. The cells are then incubated in a CO2 incubator at 37° C. for 72 hrs before determining cell viability using XTT assay. Cell viability is plotted as a function of concentration and EC50 is determined using GraphPad Prism software
• Roehm, N et al [1991] An improved colorimetric assay for cell proliferation and viability utilizing the tetrazolium salt XTT. J. Immunol. Methods 142:257-265. Reagents: Roswells park memorial institute's medium, (RPMI-1640 complete media) pH-7.4±0.2 (Sigma R6504). • Dimethyl sulfoxide (DMSO), spectroscopic grade purchased from Spectrochem, (cat no. 0704209, B. no.—3183650 MEM Cat. No. M0268, Sigma). Fetal Bovine Serum (Cat. No. F9665, Sigma Aldrich). XTT sodium salt (Sigma Cat. No. X4251). PMS (Sigma Cat. No. 68600). Preparation of Solutions/Reagents
RPMI media supplemented with antibiotics, 10% FBS, Sodium Pyruvate and NEA (non essential amino acids).
XTT—A freshly prepared solution of XTT is made in the growth medium, with a final concentration of 1 mg/ml.
PMS—Stock is prepared with 1×PBS at 0.383 mg/ml and stored in aliquots at −20° C. The XTT solution at 20 μl/ml was added just before use.
Test solution—Serially diluted DMSO solutions are further diluted with media to 2× the required concentration in well.
Culture Jurkat cells in T-25 flasks at a density of 0.2×10^6/ml 2-3 days before the day of experiment set up.
Centrifuge Jurkat T-cell suspension at 1200 rpm for 10 minutes and resuspend cells again in fresh RPMI medium with 10% FBS. Count the cells and dilute suspension to a density of 2×10^6 cells/ml. Seed 50 μL of this suspension in each well of a 96 well plate (100,000 cells per well). Keep the edges of the plate empty to avoid evaporation. […]
XTT assay: to each well, add 50 μL of 1 mg/ml XTT solution with 20 μl of PMS/mL. Read the plates after 2 hours at 465 nm using the spectrophotometer. XTT reading for media without cells is used as background reading. […]

DHODH [1] = molecular target: T1, DHODH (Homo sapiens (Human), UniProt Q02127); experiment: Measurement of DHODH inhibitory enzyme activity (coupled DCIP reduction assay); format: biochemical
T1 sequence (Q02127 whole entry): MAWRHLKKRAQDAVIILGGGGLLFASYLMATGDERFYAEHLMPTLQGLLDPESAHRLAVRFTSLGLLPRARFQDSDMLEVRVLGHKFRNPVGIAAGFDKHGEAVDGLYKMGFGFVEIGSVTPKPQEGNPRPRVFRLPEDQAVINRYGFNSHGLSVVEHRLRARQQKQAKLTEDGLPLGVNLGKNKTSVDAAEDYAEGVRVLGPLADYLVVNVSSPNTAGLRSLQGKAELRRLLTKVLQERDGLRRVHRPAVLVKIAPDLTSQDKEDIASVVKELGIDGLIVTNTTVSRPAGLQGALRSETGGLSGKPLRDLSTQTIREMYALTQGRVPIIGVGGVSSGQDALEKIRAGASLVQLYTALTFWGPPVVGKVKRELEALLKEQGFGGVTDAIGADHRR
Description: Measurement of DHODH Inhibitory Enzyme Activity (In Vitro Assays)
The DHODH activity assay is a coupled enzyme assay in which oxidation of DHO and subsequent reduction of ubiquinone are stoichiometrically equivalent to the reduction of DCIP ([…]). The reduction of DCIP is accompanied by a loss of absorbance at 610 nm.
Reagents used: L-Dihydroorotic acid, Sigma, D7128, 2,6-Dichloroindophenol sodium salt hydrate, sigma, D1878 Dimethyl sulfoxide (DMSO), spectroscopic grade purchased from Spectrochem, cat no. 0704209, B. no.—3183650 Decylubiquinone, Sigma, D7911.
Preparation of Solutions/Reagents:
Buffer Preparation: 50 mM tris HCl, 150 mM KCl, and pH 8.0, 0.8% triton.
L-Dihydroorotic acid stock solution of 20 mM in buffer.
2, 6-Dichloroindophenol Sodium salt hydrate stock solution of 20 mM in buffer.
Decylubiquinone stock solution of 20 mM in buffer.
5 μL of Dimethyl sulfoxide or a compound of formula (I) in DMSO solution was added to the wells of a 96 well plate. Compounds of formula (I) were measured at 10 μM.
Protein along with buffer was added, so that the total volume including the DMSO was 87 μL. Compound and protein were incubated for half an hour at room temperature after mixing. 5 μL of 20 mM solution of L-Dihydroorotic acid, 5 μL of 2 mM solution of Decylubiquinone and 3 μL of 2 mM solution of 2, 6-Dichloroindophenol sodium salt hydrate were added to the above solution (total assay volume 100 μL). The mixture was stirred for 2 min and absorbance was recorded at every 10 min at 610 nanometers.
Percent inhibition is calculated as follows 100*{(Abs610 for reaction containing compound)−(Abs610 for positive control) (Abs610 for no enzyme reaction)−(Abs610 for positive control) Reaction containing compound has compound, buffer, enzyme and substrates Positive control contains DMSO, buffer, enzyme and substrates No Enzyme reaction contains DMSO, buffer and substrates IC50 determination: A 2 mM DMSO stock solution of the selected 1, 4, 6-trisubstituted-2-alkyl-1H-benzo[d]imidazole derivatives of formula (I) of the present invention to be examined was prepared. Subsequent ⅓rd dilutions were made as follows:
5 μL of each stock of compound of formula (I) (solution indicated in column 4 of table) was used for each 100 μL assay. Therefore, 5 μL of the 2 mM stock provided 100 μL of 100 μM solution of compound of formula (I), when made up with buffer, protein and substrate. See also: Ulrich et al. (2001) Eur. J. Biochem. 268, 1861-1868.

DHODH [2] = molecular target: T1, DHODH; settings: DHODH versus protein tyrosine kinase; cited from earlier work

Row | EC50 (Jurkat cells) | IC50 (DHODH [1]) | Structure (SMILES) | fold greater inhibitor of DHODH than of protein tyrosine kinase (DHODH [2])
1 | 111 nM | 10 to 99 nM | COc1ccccc1-c1ccc(-c2cc(C(=O)O)c3nc(C)[nH]c3c2)cc1 [Example 18, 6-(2'-methoxy-[1,1'-biphenyl]-4-yl)-2-methyl-1H-benzo[d]imidazole-4-carboxylic acid] | –
2 | – | – | C/C(O)=C(\C#N)C(=O)Nc1ccc(C(F)(F)F)cc1 [Teriflunomide] | 100-1,000 fold
3 | 49 nM | 10 to 99 nM | Cc1nc2c(C(=O)O)cc(-c3ccc(-c4ccccc4F)cc3)cc2[nH]1 [Example 5, 6-(2'-fluoro-[1,1'-biphenyl]-4-yl)-2-methyl-1H-benzo[d]imidazole-4-carboxylic acid] | –
4 | 32 nM | 10 to 99 nM | COc1cccc(-c2ccc(-c3cc(C(=O)O)c4nc(C)[nH]c4c3)cc2)c1 [Example 10, 6-(3'-methoxy-[1,1'-biphenyl]-4-yl)-2-methyl-1H-benzo[d]imidazole-4-carboxylic acid] | –
5 | – | 10 to 99 nM | Cc1nc2c(C(=O)O)cc(-c3ccc(-c4cccc(CNC(C)(C)C)c4)cc3)cc2[nH]1 [Example 39, 6-(3'-((tert-butylamino)methyl)-[1,1'-biphenyl]-4-yl)-2-methyl-1H-benzo[d]imidazole-4-carboxylic acid.2,2,2-trifluoroacetic acid] | –
6 | – | 10 to 99 nM | Cc1nc2c(C(=O)O)cc(-c3ccc(-c4cccc(CO)c4)cc3)cc2[nH]1 [Example 90, 6-(3'-(hydroxymethyl)-[1,1'-biphenyl]-4-yl)-2-methyl-1H-benzo[d]imidazole-4-carboxylic acid] | –
7 | 133 nM | 10 to 99 nM | Cc1nc2c(C(=O)O)cc(-c3ccc(-c4ccccc4)cc3)cc2[nH]1 [Example 1, 6-([1,1'-biphenyl]-4-yl)-2-methyl-1H-benzo[d]imidazole-4-carboxylic acid] | –
